According to ChEMBL document CHEMBL1133410, “Synthesis of enantiomerically pure (+)- and (-)-18-methoxycoronaridine hydrochloride and their preliminary assessment as anti-addictive agents” (Bioorg Med Chem Lett, 2000):
Structures can show the parent of a compound that is named as a salt.

Target: Mu-type opioid receptor (Bos taurus, UniProt P79350)
Test: Binding affinity against Opioid receptor mu 1 of calf cortex using […] as radioligand

Chain of Mu-type opioid receptor (P79350 whole entry): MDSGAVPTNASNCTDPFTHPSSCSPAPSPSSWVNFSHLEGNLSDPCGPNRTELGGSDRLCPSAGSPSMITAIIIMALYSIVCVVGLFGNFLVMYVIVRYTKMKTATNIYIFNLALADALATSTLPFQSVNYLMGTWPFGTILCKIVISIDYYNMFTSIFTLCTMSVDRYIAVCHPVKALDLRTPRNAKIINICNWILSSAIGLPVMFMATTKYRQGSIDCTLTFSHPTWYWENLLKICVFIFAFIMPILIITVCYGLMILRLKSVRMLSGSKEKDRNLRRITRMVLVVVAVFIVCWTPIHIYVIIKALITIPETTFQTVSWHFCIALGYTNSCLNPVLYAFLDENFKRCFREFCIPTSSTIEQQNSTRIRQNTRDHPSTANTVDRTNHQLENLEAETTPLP

Compound `COCCC1CC2CN3CCc4c([nH]c5ccccc45)C(C(=O)OC)(C2)C13` (racemic) [ZOLUNICANT HYDROCHLORIDE] has a Ki of 1.1 µM.

`COCCC1CC2CN3CCc4c([nH]c5ccccc45)C(C(=O)OC)(C2)C13` (stereo in doubt; (+)) [ZOLUNICANT HYDROCHLORIDE] showed a Ki of 0.74 µM.

In the case of `COCCC1CC2CN3CCc4c([nH]c5ccccc45)C(C(=O)OC)(C2)C13` (stereo in doubt; (-)) [ZOLUNICANT HYDROCHLORIDE], the Ki is reported as 13 µM.
